≈ marks a conversion by molar mass, not a printed value. Read-outs that look alike come from different tables or passages of the source. Starred links: 1 amine or outer side, 2 acyl side, 3 side chain; linkers in the order of their positions; H or OH if unused. Positions of bridges follow the written chain, without caps; N, C: chain ends. Non-standard residues stand in square brackets, D forms with d. Residues, ends and D or L forms follow the SMILES beside them. *: point of attachment. hTyr(3S-OH,4S-OH,3'-OSO3H) = N[C@H](C(=O)O)[C@H](O)[C@@H](O)c1ccc(O)c(OS(=O)(=O)O)c1; pTerphenylCO(4''-OnC5H11) = CCCCCOc1ccc(-c2ccc(-c3ccc(C(=O)*)cc3)cc2)cc1; Orn(4R-OH,5R-OH) = O=C([C@H](C[C@@H](O)[C@@H](O)N[*:3])N[*:1])[*:2]; hTyr(3S-OH,4S-OH) = N[C@H](C(=O)O)[C@H](O)[C@@H](O)c1ccc(O)cc1; Pro(3S-OH,4S-Me) = C[C@H]1CN[C@H](C(=O)O)[C@H]1O; X1 = CCCCCOc1ccc(-c2cc(-c3ccc(C(=O)*)cc3)no2)cc1; Gln(3R-OH) = NC(=O)C[C@@H](O)[C@H](N)C(=O)O; Hyp = O=C(O)[C@@H]1C[C@@H](O)CN1
Assays:
[1] = test system: C. glabrata CDC #0325; test: MIC against C. glabrata CDC #0325; type: cell-based; conditions: for MIC: Nakaseomyces glabratus, read-out: minimum inhibitory concentration (MIC)
Protocol: (§1) Direct bioactivity screening experiments of CHM-752 are performed against Candida pathogens (Table 13).

[2] = test system: C. auris CDC #0387; test: MIC against C. auris CDC #0387; type: cell-based, Candida auris; conditions: for MIC: Candidozyma auris, read-out: minimum inhibitory concentration (MIC)
Protocol: as §1

[3] = test system: C. albicans ATCC 90028; test: MIC against C. albicans ATCC 90028; type: cell-based, Candida albicans; conditions: for MIC: Candida albicans
Protocol: as §1

[4] = test system: C. albicans MYA-574; test: MIC against C. albicans MYA-574; type: cell-based, Candida albicans; conditions: for MIC: Candida albicans
Protocol: as §1

[5] = test system: C. auris CDC #0381; test: MIC against C. auris CDC #0381; type: cell-based, Candida auris; conditions: for MIC: Candidozyma auris, read-out: minimum inhibitory concentration (MIC)
Protocol: as §1

[6] = test system: C. glabrata ATCC 36583; test: MIC against C. glabrata ATCC 36583; type: cell-based; conditions: for MIC: Nakaseomyces glabratus, ATCC36583, read-out: minimum inhibitory concentration (MIC)
Protocol: as §1

[7] = test system: C. glabrata CDC #0318; test: MIC against C. glabrata CDC #0318; type: cell-based; conditions: for MIC: Nakaseomyces glabratus, read-out: minimum inhibitory concentration (MIC)
Protocol: as §1

[8] = test system: C. auris CDC #0390; test: MIC against C. auris CDC #0390; type: cell-based, Candida auris; conditions: for MIC: Candidozyma auris, read-out: minimum inhibitory concentration (MIC)
Protocol: as §1

[9] = test system: C. auris CDC #0383; test: MIC against C. auris CDC #0383; type: cell-based, Candida auris; conditions: for MIC: Candidozyma auris, read-out: minimum inhibitory concentration (MIC)
Protocol: as §1

[10] = test system: C. auris CDC #0385; test: MIC against C. auris CDC #0385; type: cell-based, Candida auris; conditions: for MIC: Candidozyma auris, read-out: minimum inhibitory concentration (MIC)
Protocol: as §1

[11] = test system: C. glabrata CDC #0315; test: MIC against C. glabrata CDC #0315; type: cell-based; conditions: for MIC: Nakaseomyces glabratus, read-out: minimum inhibitory concentration (MIC)
Protocol: as §1

[12] = test system: C. auris CDC #0384; test: MIC against C. auris CDC #0384; type: cell-based, Candida auris; conditions: for MIC: Candidozyma auris, read-out: minimum inhibitory concentration (MIC)
Protocol: as §1

[13] = test system: C. glabrata CDC #0321; test: MIC against C. glabrata CDC #0321; type: cell-based; conditions: for MIC: Nakaseomyces glabratus, read-out: minimum inhibitory concentration (MIC)
Protocol: as §1

[14] = test system: C. auris CDC #0389; test: MIC against C. auris CDC #0389; type: cell-based, Candida auris; conditions: for MIC: Candidozyma auris, read-out: minimum inhibitory concentration (MIC)
Protocol: as §1

[15] = ATCC90028, read-out: minimum inhibitory concentration (MIC)
[16] = ATCC90028, C. albicans ATCC 90028, read-out: minimum inhibitory concentration (MIC)
[17] = MYA574, C. albicans MYA-574, read-out: minimum inhibitory concentration (MIC)

SMILES	MIC [1]	MIC [2]	MIC [3, 15]	MIC [5]	MIC [7]	MIC [8]	MIC ([1]; C. glabrata CDC #0325)	MIC ([2]; C. auris CDC #0387)	MIC [3, 16]	MIC [4, 17]	MIC ([5]; C. auris CDC #0381)	MIC [6]	MIC ([7]; C. glabrata CDC #0318)	MIC ([8]; C. auris CDC #0390)	MIC ([9]; C. auris CDC #0383)	MIC ([10]; C. auris CDC #0385)	MIC ([11]; C. glabrata CDC #0315)	MIC ([12]; C. auris CDC #0384)	MIC ([13]; C. glabrata CDC #0321)	MIC ([14]; C. auris CDC #0389)	further results
C[C@@H]1[C@H](O)[C@@H](C)/C=C/C=C/C=C/C=C/C=C/C=C/C=C/[C@H](O[C@@H]2O[C@H](C)[C@@H](O)[C@H](N)[C@@H]2O)C[C@@H]2O[C@](O)(C[C@@H](O)C[C@@H](O)[C@H](O)CC[C@@H](O)C[C@@H](O)CC(=O)O[C@H]1C)C[C@H](O)[C@H]2C(=O)O [AMP, Amphotericin B]																					minimum inhibitory concentration (MIC) ([1]; C. glabrata CDC #0325): 0.25 µg/mL (≈ 0.271 µM); minimum inhibitory concentration (MIC) ([2]; C. auris CDC #0387): 0.75 µg/mL (≈ 0.812 µM); minimum inhibitory concentration (MIC) ([3]; C. albicans ATCC 90028): 0.13 µg/mL (≈ 0.141 µM); minimum inhibitory concentration (MIC) ([4]; C. albicans MYA-574): 0.13 µg/mL (≈ 0.141 µM); minimum inhibitory concentration (MIC) ([5]; C. auris CDC #0381): 0.13 µg/mL (≈ 0.141 µM); minimum inhibitory concentration (MIC) [6]: 0.13 µg/mL (≈ 0.141 µM); minimum inhibitory concentration (MIC) ([7]; C. glabrata CDC #0318): 0.19 µg/mL (≈ 0.206 µM); minimum inhibitory concentration (MIC) ([8]; C. auris CDC #0390): 4 µg/mL (≈ 4.33 µM); minimum inhibitory concentration (MIC) ([9]; C. auris CDC #0383): 0.38 µg/mL (≈ 0.411 µM); minimum inhibitory concentration (MIC) ([10]; C. auris CDC #0385): 0.5 µg/mL (≈ 0.541 µM); minimum inhibitory concentration (MIC) ([11]; C. glabrata CDC #0315): 0.38 µg/mL (≈ 0.411 µM); minimum inhibitory concentration (MIC) ([12]; C. auris CDC #0384): 0.5 µg/mL (≈ 0.541 µM); minimum inhibitory concentration (MIC) ([13]; C. glabrata CDC #0321): 0.09 µg/mL (≈ 0.0974 µM); minimum inhibitory concentration (MIC) ([14]; C. auris CDC #0389): 4 µg/mL (≈ 4.33 µM)
CCCCCOc1ccc(-c2ccc(-c3ccc(C(=O)N[C@H]4C[C@@H](O)[C@@H](O)NC(=O)[C@@H]5[C@@H](O)[C@@H](C)CN5C(=O)[C@H]([C@@H](C)O)NC(=O)[C@H]([C@H](O)[C@@H](O)c5ccc(O)cc5)NC(=O)[C@@H]5C[C@@H](O)CN5C(=O)[C@H]([C@@H](C)O)NC4=O)cc3)cc2)cc1 [ANI, Anidulafungin] ({pTerphenylCO(4''-OnC5H11)}-[Orn(4R-OH,5R-OH)]T[Hyp][hTyr(3S-OH,4S-OH)]T[Pro(3S-OH,4S-Me)]; lactam 1-C)	4 µg/mL (≈ 3.51 µM)	0.5 µg/mL (≈ 0.438 µM)	0.01 µg/mL (≈ 0.00877 µM)	0.25 µg/mL (≈ 0.219 µM)	4 µg/mL (≈ 3.51 µM)	1 µg/mL (≈ 0.877 µM)															MIC [9]: 1 µg/mL (≈ 0.877 µM); MIC [10]: 1 µg/mL (≈ 0.877 µM); MIC [11]: 2 µg/mL (≈ 1.75 µM); MIC [12]: 2 µg/mL (≈ 1.75 µM); MIC [13]: 2 µg/mL (≈ 1.75 µM); MIC [14]: 1 µg/mL (≈ 0.877 µM)
CC[C@H](C)C[C@H](C)CCCCCCCCC(=O)N[C@H]1C[C@@H](O)[C@@H](NCCN)NC(=O)[C@@H]2[C@@H](O)CCN2C(=O)[C@H]([C@H](O)CCN)NC(=O)[C@H]([C@H](O)[C@@H](O)c2ccc(O)cc2)NC(=O)[C@@H]2C[C@@H](O)CN2C(=O)[C@H]([C@@H](C)O)NC1=O [CAS, Caspofungin]							> 16 µg/mL	0.25 µg/mL (≈ 0.229 µM)	0.5 µg/mL (≈ 0.457 µM)	0.5 µg/mL (≈ 0.457 µM)	0.13 µg/mL (≈ 0.119 µM)	0.5 µg/mL (≈ 0.457 µM)	16 µg/mL (≈ 14.6 µM)	0.5 µg/mL (≈ 0.457 µM)	0.25 µg/mL (≈ 0.229 µM)	0.5 µg/mL (≈ 0.457 µM)	16 µg/mL (≈ 14.6 µM)	16 µg/mL (≈ 14.6 µM)	4 µg/mL (≈ 3.66 µM)	0.5 µg/mL (≈ 0.457 µM)	
OC(Cn1cncn1)(Cn1cncn1)c1ccc(F)cc1F [FLC, Fluconazole]							128 µg/mL (≈ 418 µM)	8 µg/mL (≈ 26.1 µM)	0.25 µg/mL (≈ 0.816 µM)	64 µg/mL (≈ 209 µM)	4 µg/mL (≈ 13.1 µM)	8 µg/mL (≈ 26.1 µM)	32 µg/mL (≈ 104 µM)	> 256 µg/mL	128 µg/mL (≈ 418 µM)	> 256 µg/mL	4 µg/mL (≈ 13.1 µM)	128 µg/mL (≈ 418 µM)	64 µg/mL (≈ 209 µM)	256 µg/mL (≈ 836 µM)	
CCCCCOc1ccc(-c2cc(-c3ccc(C(=O)N[C@H]4C[C@@H](O)[C@@H](O)NC(=O)[C@@H]5[C@@H](O)[C@@H](C)CN5C(=O)[C@H]([C@H](O)CC(N)=O)NC(=O)[C@H]([C@H](O)[C@@H](O)c5ccc(O)c(OS(=O)(=O)O)c5)NC(=O)[C@@H]5C[C@@H](O)CN5C(=O)[C@H]([C@@H](C)O)NC4=O)cc3)no2)cc1 [MF, Micafungin] (X1-[Orn(4R-OH,5R-OH)]T[Hyp][hTyr(3S-OH,4S-OH,3'-OSO3H)][Gln(3R-OH)][Pro(3S-OH,4S-Me)]; lactam 1-C)	4 µg/mL (≈ 3.15 µM)	0.5 µg/mL (≈ 0.394 µM)	0.02 µg/mL (≈ 0.0157 µM)	0.13 µg/mL (≈ 0.102 µM)	4 µg/mL (≈ 3.15 µM)	0.25 µg/mL (≈ 0.197 µM)															MIC ([4]; MYA574, read-out: minimum inhibitory concentration (MIC)): 0.06 µg/mL (≈ 0.0472 µM); MIC [9]: 1 µg/mL (≈ 0.787 µM); MIC [10]: 0.5 µg/mL (≈ 0.394 µM); MIC [11]: 4 µg/mL (≈ 3.15 µM); MIC [12]: 2 µg/mL (≈ 1.57 µM); MIC [13]: 1 µg/mL (≈ 0.787 µM); MIC [14]: 0.25 µg/mL (≈ 0.197 µM)
C[C@@H](c1ncncc1F)[C@](O)(Cn1cncn1)c1ccc(F)cc1F [VRC, Voriconazole]							16 µg/mL (≈ 45.8 µM)	0.06 µg/mL (≈ 0.172 µM)	0.01 µg/mL (≈ 0.0286 µM)	0.25 µg/mL (≈ 0.716 µM)	0.03 µg/mL (≈ 0.0859 µM)	0.5 µg/mL (≈ 1.43 µM)	1 µg/mL (≈ 2.86 µM)	8 µg/mL (≈ 22.9 µM)	4 µg/mL (≈ 11.5 µM)	16 µg/mL (≈ 45.8 µM)	0.25 µg/mL (≈ 0.716 µM)	1 µg/mL (≈ 2.86 µM)	2 µg/mL (≈ 5.73 µM)	0.4 µg/mL (≈ 1.15 µM)	

Reference: patent US12712052B2, “Method and system to identify natural products from mass spectrometry and genomics data” (priority 2021, dated 2026)
